From patent publication US5994308A, “Broad spectrum antimicrobial peptides containing a tryptophan triplet and methods of use” (Board of Trustees of Southern Illinois University, priority 1997, dated 1999)
Where a SMILES comes first, the peptide text is derived from it.

Assays:
Candida albicans = type: cell-based; settings: 24 h
Protocol: (§1) The minimum inhibitory concentration (MIC) was determined by growing fungal strains in YG media until the fungi reached logarithmic phase. The cells were diluted in YG medium then placed in a 96-well plate along with a series of 2-fold dilutions of the peptides. The plate was then incubated at 37° C. for 24 hours. Minimum inhibitory growth was defined as the lowest concentration at which there was no fungal growth.

Aspergillus fumigatus = type: cell-based; settings: 24 h
Protocol: as §1

SMILES | MINIMUM INHIBITORY CONCENTRATION Candida albicans (Candida albicans) | MINIMUM INHIBITORY CONCENTRATION Aspergillus fumigatus (Aspergillus fumigatus)
CC(C)C[C@H](NC(=O)[C@H](Cc1ccccc1)NC(=O)[C@@H]1CCCN1C(=O)[C@H](Cc1c[nH]c2ccccc12)NC(=O)[C@H](Cc1c[nH]c2ccccc12)NC(=O)[C@H](Cc1c[nH]c2ccccc12)NC(=O)[C@@H]1CCCN1C(=O)[C@H](Cc1ccccc1)NC(=O)[C@H](CCCNC(=N)N)NC(=O)[C@H](CCCNC(=N)N)NC(=O)[C@@H](N)C(C)C)C(=O)N[C@@H](CCCNC(=N)N)C(=O)N[C@@H](CCCNC(=N)N)C(=O)O [Peptide 1, VRRFPWWWPFLRR] | 1000 µg/mL | 250 µg/mL
CC(C)C[C@H](NC(=O)[C@H](Cc1ccccc1)NC(=O)[C@@H]1CCCN1C(=O)[C@H](Cc1c[nH]c2ccccc12)NC(=O)[C@H](Cc1c[nH]c2ccccc12)NC(=O)[C@H](Cc1c[nH]c2ccccc12)NC(=O)[C@@H]1CCCN1C(=O)[C@H](Cc1ccccc1)NC(=O)[C@@H](N)CCCNC(=N)N)C(=O)N[C@@H](CCCNC(=N)N)C(=O)O [Peptide 3, RFPWWWPFLR] (H-RFPWWWPFLR-OH) | – | 500 µg/mL
N[C@@H](Cc1ccccc1)C(=O)N1CCC[C@H]1C(=O)N[C@@H](Cc1c[nH]c2ccccc12)C(=O)N[C@@H](Cc1c[nH]c2ccccc12)C(=O)N[C@@H](Cc1c[nH]c2ccccc12)C(=O)N1CCC[C@H]1C(=O)N[C@@H](Cc1ccccc1)C(=O)O [Peptide 4, FPWWWPF] (H-FPWWWPF-OH) | – | 500 µg/mL
